According to patent US5374601A, “Thermal transfer sheet” (Dai Nippon Printing Co., Ltd., priority 1991, dated 1994):

Tested on: Salmonella TA1538 and TA98
Assay: Ames test (preincubation method, metabolically activated, +x9mix)
Conditions: 0 to 5 mg; for Increase (times): maximum increase in the colony of the sample as compared with the solvent control: acetone as solvent control; for Toxicity (mutagenicity): judged against solvent control
Description: Ames test was conducted as an identical amest test with respect to representative examples of the intermediate of the present invention and control dyes having the same structure as that of the intermediate of the present invention, except that the ring was a pyridine ring instead of the phenyl ring.
The ames test was conducted in such a state that Salmonella TA1538 and TA98 were metabolically activated by a preincubation method (+x9mix). The dye was used in contentrations in five grades in the range of from 0 to 5 mg. Acetone was used as the solvent control. The toxicity was judged based on the maximum increase in the colony of the sample as compared with the solvent control. Specifically, when the increase in the reversion colony was twice or more as compared with that in the case of the control, the mutagenicity was judged as positive, while when the increase in the reversion colony was less than twice as compared with that in the case of the control, the mutagenicity was judged as negative.

Row | Structure (SMILES) | Increase (times): maximum increase in the colony of the sample as compared with the solvent control [times] | Toxicity (mutagenicity)
1 | CCN(CC)c1ccc(N=Nc2cn(-c3ccccc3)nc2C)cn1 | 1.5 | neg- ative
2 | CCN(CC)c1ccc(N=C2C=C(NC(C)=O)C(=O)C(Cl)=C2C)cn1 | 1.5 | neg- ative
3 | CCN(CC)c1ccc(N=Nc2cn(-c3ccccc3)nc2C)cc1 | 2.2 | pos- itive
4 | CCN(CC)c1ccc(N=C2C=C(NC(C)=O)C(=O)C(Cl)=C2C)cc1 | 1.7 | neg- ative
